Experimental data reported in publication PMC7464173, “Phosphate Derivatives of 3-Carboxyacylbetulin: SynThesis, In Vitro Anti-HIV and Molecular Docking Study” (Biomolecules, 2020).
Read-outs that look alike come from different tables or passages of the source.

Experiments:
[1] = Cytotoxicity, MTT assay in CEM-T4 cells; type: cell-based; settings: human
Experimental: For the determination of compounds’ cytotoxicity, CEM-T4 cells were obtained from the NIH AIDS Reagent Program (NIH, US) and were cultured in RPMI supplemented with 10% FCS (Biochrom) and antibiotics at 37 °C in 5% CO2 on 96-well culture plates. The experiments were carried out in media containing tested compounds in concentrations of the appropriate range. Cultures in a neat medium (RPMI, 10% FCS) were used as a control. Viability of cells was determined after 7 days using the MTT assay in which 10 μL of MTT solution (5 mg/mL) was added to each culture plate well, and cultures were incubated for 3 h at a temperature of 37 °C. After the centrifugation, the supernatant was removed, and DMSO was added for lysis of the cells and to dissolve crystals of formazan. Color intensity was measured with a plate reader at 560 nm.
Newly synthesized compounds 2–5 were evaluated for their activity against HIV-1 in a CEM-T4 cell line. First, a cytotoxicity assessment of the synthesized derivatives was performed using the MTT [3-(4,5-dimethylthiazol-2-yl)-2,5-diphenyltetrazolium bromide]. The results were expressed as CC50 (concentration of compound causing 50% cell death). Anti-HIV activity was expressed as IC50 (concentration of compound causing 50% inhibition of replication) and consisted of measurements of p24 antigen made using the Genscreen ULTRA HIV Ag-Ab Kit.

HIV-1 [2] = assay: Anti-HIV-1 replication activity, p24 antigen ELISA in HIV-infected CEM-T4 cell line; type: cell-based; settings: for IC50: Human immunodeficiency virus 1, CEM-T4, 168 h; for ability to inhibit HIV replication: tested range of concentrations 0.02 to 10 μM; for TI: therapeutic index (selectivity index), the ratio of CC50 to IC50
HIV-1 [3] = tested on: HIV-1; design: method as in PMID 31640137; settings: in vitro anti-HIV-1 activity; cited from earlier work
[4] = cytotoxicity; cited from earlier work
[5] = concentration causing 50% cell death, CEM-T4 cells, MTT, 7 days, read-out: CC50
[6] = cytotoxicity values, CEM-T4 cells, read-out: IC50 (cytotoxicity)

Row | SMILES | CC50 at 7 days [1] | IC50 at 7 days [1] | IC50 (HIV-1 [2]) | CC50 at 7 days [1, 5] | ability to inhibit HIV replication (HIV-1 [2]) | IC50 at 7 days [1, 6] | TI (HIV-1 [2]) | IC50 (HIV-1 [3]) | CC50 [4]
1 | C=C(C)[C@@H]1CC[C@]2(C(=O)O)CC[C@]3(C)[C@H](CC[C@@H]4[C@@]5(C)CC[C@H](OC(=O)CC(C)(C)C(=O)O)C(C)(C)[C@@H]5CC[C@]43C)[C@@H]12 [BVM, 3-O-(3’,3’-dimethylsuccinyl)betulinic acid, reference compound] | 29 ± 2.43 µM | 29 µM | 0.03 ± 0.009 µM | – | – | – | – | – | –
2 | C=C(C)[C@@H]1CC[C@]2(CO)CC[C@]3(C)[C@H](CC[C@@H]4[C@@]5(C)CC[C@H](O)C(C)(C)[C@@H]5CC[C@]43C)[C@@H]12 [Compound 1, Betulin] | – | – | > 10 µM | 46 ± 3.01 µM | did not demonstrate the ability to inhibit HIV replication | – | – | – | –
3 | C=C(C)[C@@H]1CC[C@]2(COP(=O)(OCC)OCC)CC[C@]3(C)C(CCC4[C@@]5(C)CC[C@H](O)C(C)(C)C5CC[C@]43C)C12 (some centres unmarked) [Compound 2, 28-Diethoxyphosphorylbetulin] | – | – | > 10 µM | 18.3 ± 1.64 µM | did not demonstrate the ability to inhibit HIV replication | – | – | – | –
4 | C=C(C)[C@@H]1CC[C@]2(COP(=O)(OCC)OCC)CC[C@]3(C)C(CCC4[C@@]5(C)CC[C@H](OC(=O)CC(C)(C)C(=O)O)C(C)(C)C5CC[C@]43C)C12 (some centres unmarked) [Compound 3, 28-Diethoxyphosphoryl-3-O-(3′,3′-dimethylsuccinyl)betulin] | – | – | 0.02 ± 0.01 µM | 25.4 ± 1.54 µM | – | 25.4 µM | 1250 | – | –
5 | C=C(C)[C@@H]1CC[C@]2(COP(=O)(OCC)OCC)CC[C@]3(C)C(CCC4[C@@]5(C)CC[C@H](OC(=O)CC(C)(C)CC(=O)O)C(C)(C)C5CC[C@]43C)C12 (some centres unmarked) [Compound 4, 28-Diethoxyphosphoryl-3-O-(3′,3′-dimethylglutaryl)betulin] | – | – | 0.04 ± 0.01 µM | 19.7 ± 1.64 µM | – | 19.7 µM | 500 | – | –
6 | C=C(C)[C@@H]1CC[C@]2(COP(=O)(OCC)OCC)CC[C@]3(C)C(CCC4[C@@]5(C)CC[C@H](OC(=O)CCC(C)(C)C(=O)O)C(C)(C)C5CC[C@]43C)C12 (some centres unmarked) [Compound 5, 28-Diethoxyphosphoryl-3-O-(4′,4′-dimethylglutaryl)betulin] | – | – | 0.22 ± 0.05 µM | 15.1 ± 1.27 µM | – | 15.1 µM | 68 | – | –
7 | C=C(CP(=O)(OCC)OCC)[C@@H]1CC[C@]2(C(=O)O)CC[C@]3(C)C(CC[C@@H]4[C@@]5(C)CC[C@H](OC(=O)CC(C)(C)C(=O)O)C(C)(C)C5CC[C@]43C)[C@@H]12 (some centres unmarked) [Compound 6, 30-diethoxyphosphoryl-3-O-(3′,3′-dimethylsuccinyl)betulinic acid] | – | – | – | – | – | – | – | 0.02 µM | 68 µM
